Assay [1] relates to vascular permeability induced by acetic acid. The experiment in a line: Acetic acid-induced vascular permeability in mice. Format: in vivo, ICR mice. The following applies: Evans blue in abdominal cavity, OD 630 nm. Here is the method:
The inhibitory effect of the mixed herbal extract obtained in the above reference example 3 against vascular permeability was investigated.
Seven week old ICR mice were separated into each experimental group, orally administered with Trachelospermi caulis extract at a concentration of 20 mg/kg and 200 mg/kg, respectively, Pyrola japonica extract at a concentration of 20 mg/kg and 200 mg/kg, respectively, and a mixed […], respectively, after dissolving them in distilled water to a concentration of 0.1 mL/10 g b.wt., by using a sonde.
The dosage volume was determined based on the body weight measured on the day of experiment and the control group was only administered with distilled water, a preparation solvent, at a concentration of 0.1 mL/10 g b.wt. Phenylbutazone was orally administered with a dosage of 50 mg/kg b.wt. after suspending it in 0.5% methyl cellulose.
ICR male mice, which were fasted for 12 hours prior to the experiment, were administered with a test substance according to the method of Whittle (1964). […] The washing solution was collected from the abdominal cavity and then centrifuged at 2,000 rpm for 10 minutes and the supernatant was measured of its optical density at 630 nm by using a spectrophotometer to calculate the amount of Evan's blue solution flowed into the abdominal cavity. […]

The test system of the next assay is TNF-α. To be noted: Int Immunopharmacol. 2004; 4(10-11):1419-29; cited from earlier work.
For the next assay, the system named is NF-κB. The following applies: human keratinocytes; J Dermatol Sci. 2003; 31(3):193-201; cited from earlier work.

`CCCCC1C(=O)N(c2ccccc2)N(c2ccccc2)C1=O` [phenylbutazone]: the Leakage of dye in assay [1] (50 mg/kg oral) is recorded as 39.0 ± 3.45 μg/10 g b. wt. Consider `COc1cc(C[C@H]2C(=O)OC[C@@H]2Cc2ccc(OC)c(OC)c2)ccc1O` [arctigenin], for which, in the assay with TNF-α, the TNF-α inhibitory activity result is recorded as “TNF-α inhibitory activity”.

As to `OC[C@H]1O[C@@H](Oc2ccc(O)cc2)[C@H](O)[C@@H](O)[C@@H]1O` [Arbutin], the “activity of NF-κB” value in the assay with NF-κB is given as “inhibit the activity of NF-κB”. For `COc1ccc2c(c1)c(CC(=O)O)c(C)n2C(=O)c1ccc(Cl)cc1` [indomethacin], the Leakage of dye in assay [1] (1 mg/kg) worked out at 36.3 ± 2.67 μg/10 g b. wt.

As to `COc1ccc(C[C@H]2COC(=O)[C@@H]2Cc2ccc(O[C@@H]3O[C@H](CO)[C@@H](O)[C@H](O)[C@H]3O)c(OC)c2)cc1OC` [arctiin], the TNF-α inhibitory activity entry with TNF-α is “TNF-α inhibitory activity”.

The values are drawn from patent US8455014B2, “Composition comprising Trachelospermi caulis and Pyrola japonica extracts for the treatment and prevention of inflammatory diseases” (Sinil Pharmaceutical Co., Ltd., priority 2007, dated 2013).
